Laboratory results from patent US12152046B2, “Oleic acid derivatives, pharmaceutical composition or food composition comprising said oleic acid derivatives, and their uses” (UNIVERSITÉ DE BOURGOGNE, priority 2018, dated 2024).
“Also recorded” adds a separate entry of the source.

Key:
obese C57BL/6J mice = assay: Diet-induced obesity, body weight on high-fat diet; type: in vivo, mouse; conditions: for body weight in obese mice: HFD 28 weeks, analogue 75 μM in feeder bottles from 10th week, versus HFD only
Experimental: C57BL/6J male mice, aged between 6 to 10 weeks (16-20 g), were obtained from Janvier Labs (France). They were housed individually in a controlled environment with a 12 h light/dark cycle with food (SAFE, France) and water ad libitum. The palm oil (Huilerie Vigean, France) was the main fat component in high-fat diets. The high-fat diet was prepared weekly and stored at 4° C. until further use. The study was conducted as per Declaration of Helsinki and European ethical guidelines for the care and use of animals for experimentation. All the experimental protocols (protocol number: 16158) were approved by the Regional Ethical Committee of the University of Burgundy (Dijon, France).
The mice were grouped at random (n=10/group) and fed with either of the following diets: standard diet (STD) or high-fat diet (HFD). The body weight, food, and water intake were measured, weekly.
(§1) After 10 weeks of feeding the diets, obese animals were divided into two groups: one groups continued to be fed on the same HFD; however, another group was fed on the same diet and received either NKS-3 or NKS-5) until 28th of weeks of experimentation. At the end, the animals were sacrificed, under a fasting condition, and used for different analysis in blood and different tissues.
In order to elucidate the beneficial effects and especially during obesity, experiments were conducted on obese C57BL/6J mice. […] In order to test the curative/interventional effects on obesity, the animals were divided into two groups: one group that consumed only the high-fat diet (HFD) and the other consuming the same diet and also receiving 3a or 2a in ad libitum baby bottles/feeders. From the 10th week of the diet, we introduced lipid analogues into the bottles at 75 μM that corresponded to their preference in the double choice test. […] In addition, the decrease in obesity was maintained until the 28th week of feeding a HFD (FIGS. 6A and 6B). The study was stopped after the 28th week of the diet because the animals reached the age of 34 weeks and beyond that age, the aging factor may interfere with the growth.

GPR120 = molecular target: T1, GPR120 (Mus musculus, UniProt Q7TMA4); assay: Ca2+ signaling in mouse taste bud cells in presence or absence of the GPR120 antagonist AH7614; type: cell-based; conditions: AH7614 20 μM, compound at 50 μM, cells pre-incubated 15 minutes
T1 construct: freshly isolated and primary cultured mice type II taste bud cells (expressing GPR120 and CD36) are used; endogenous in cells; host or cells: primary mouse taste bud cells from fungiform papillae
T1 sequence (Q7TMA4 1-361): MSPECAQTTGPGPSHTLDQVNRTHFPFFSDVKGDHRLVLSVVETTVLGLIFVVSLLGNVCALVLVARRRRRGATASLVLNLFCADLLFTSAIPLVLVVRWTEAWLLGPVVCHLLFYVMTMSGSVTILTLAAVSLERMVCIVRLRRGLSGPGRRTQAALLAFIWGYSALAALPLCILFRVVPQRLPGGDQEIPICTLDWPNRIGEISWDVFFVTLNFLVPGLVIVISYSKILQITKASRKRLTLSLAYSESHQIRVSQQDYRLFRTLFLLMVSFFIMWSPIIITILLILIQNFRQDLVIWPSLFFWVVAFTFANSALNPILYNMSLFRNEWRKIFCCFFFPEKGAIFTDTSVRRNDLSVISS
Experimental: (§2) The mouse taste bud cells were seeded in 24-well plates (with glass bottom), containing poly-D-lysine for better adhesion to the surface. After 24 h, taste cells were incubated for 45 minutes with a fluorescent probe, Fura-2/AM (1 μM) in calcium buffer (110 mM NaCl, 5.4 mM, KCl, 25 mM, NaHCO3, 0.8 mM, MgCl2, 0.4 mM, KH2PO4, 20 mM, Hepes-Na, 0.33 mM, NaHPO4, 1.2 mM, CaCl2), pH 7.4). Then, the cells are washed with phosphate buffer saline (PBS) and taken up in calcium buffer.
Especially, the increases in [Ca^2+]i were measured as follows: the mice taste bud cells were cultured on Willico-Dish wells with a glass bottom and loaded with a fluorescent probe, Fura-2/AM. The changes in intracellular Ca^2+ (F340/F380) were monitored under the Nikon microscope (TiU) by using S-fluor 40× oil immersion objective. The planes were taken at Z intervals of 0.3 μm, and NIS-Elements software was used to deconvolve the images. […] The dual excitation fluorescence imaging system was used for studies of individual cells. The changes in intracellular Ca^2+ were expressed as ΔRatio, which was calculated as the difference between the peak F340/F380 ratio. […] The results were analyzed with the NIS-elements software, the variation in [Ca^2+]i is expressed as A ratio (F340/F380) which was calculated with the difference of spectra at two wavelengths, i.e., 340 nm and 380 nm. […]

mouse taste bud cells = assay: Ca2+ signaling (Fura-2/AM, F340/F380) in mouse taste bud cells; type: cell-based; conditions: for fat taste receptor(s) through which the compound acts: Ca2+ signaling with SSO or AH7614; for increase in intracellular free calcium concentration [Ca2+]i (F340/F380): mouse taste bud cells loaded with Fura-2/AM
Experimental: The technique to isolate taste bud cells from mouse fungiform papillae has been described in the publication of El-Yassimi A, Hichami A, Besnard P, Khan N A. “Linoleic acid” induces calcium signaling, Src kinase phosphorylation, and neurotransmitter release in mouse CD36-positive gustatory cells”—J. Biol. Chem. 2008 May 9, 283(19), 12949-59.
Briefly, lingual epithelium was separated by enzymatic dissociation which contained the following: elastase and dispase mixture, 2 mg/ml each, in Tyrode's buffer (120 mM NaCl; 5 mM KCl; 10 mM HEPES ((4-(2-hydroxyethyl)-1-piperazineethanesulfonic acid); 1 mM CaCl2); 1 mM MgCl2; 10 mM glucose; 10 mM Na pyruvate, pH 7.4). The taste bud cells were isolated by incubating lingual epithelium in RPMI 1640 medium containing 2 mM EDTA, 1.2 mg/ml elastase, 0.6 mg/ml collagenase (type I), and 0.6 mg/ml trypsin inhibitor at 37° C. for 10 minutes, followed by centrifugation (600 g, 10 minutes). The cell populations, after separation, were suspended in fresh RPMI 1640 medium containing 10% fetal calf serum, 200 U/ml penicillin, and 0.2 mg/ml streptomycin, seeded onto a Poly-D-Lysine-coated dishes, and cultured for 24 hours. At the end of this period, the cells were used for the experiments or stained with trypan blue to assess their viability.
as §2
The changes in intracellular Ca^2+ (F340/F380) were monitored under a Nikon microscope (TiU) by using an S Fluor 40× oil immersion objective.
(§3) Especially, the increases in [Ca^2+]i were measured as follows: the mice taste bud cells were cultured on Willico-Dish wells with a glass bottom and loaded with a fluorescent probe, Fura-2/AM. The changes in intracellular Ca^2+ (F340/F380) were monitored under the Nikon microscope (TiU) by using S-fluor 40× oil immersion objective. The planes were taken at Z intervals of 0.3 μm, and NIS-Elements software was used to deconvolve the images. The microscope was equipped with EM-CCD (Lucas) camera for real time recording of 16-bit digital images. The dual excitation fluorescence imaging system was used for studies of individual cells. The changes in intracellular Ca^2+ were expressed as ΔRatio, which was calculated as the difference between the peak F340/F380 ratio. The data were summarized from the large number of individual cells (20-40 cells in a single run, with 3-9 identical experiments done in at least three cell preparations). The results were analyzed with the NIS-elements software, the variation in [Ca^2+]i is expressed as A ratio (F340/F380) which was calculated with the difference of spectra at two wavelengths, i.e., 340 nm and 380 nm.

CD36 = molecular target: T2, CD36 (Mus musculus, UniProt Q08857); assay: Ca2+ signaling in mouse taste bud cells in presence or absence of the CD36 inhibitor SSO; type: cell-based; conditions: for action of the CD36 inhibitor SSO on the increase in [Ca2+]i induced by the compound: 20 μM SSO, mouse taste bud cells, Fura-2/AM; for CD36 agonist character: concluded from suppression by SSO
T2 construct: freshly isolated and primary cultured mice type II taste bud cells (expressing GPR120 and CD36) are used; endogenous in cells; host or cells: primary mouse taste bud cells from fungiform papillae
Experimental: as §2, §3
CD36: in order to assess if the oleic acid derivatives according to the invention exert their actions via CD36, the sulfo-N-succinimidyl oleate (SSO) was used. SSO is a CD36 inhibitor/blocker/antagonist.
Experiments were performed in the presence or absence of SSO with respect to calcium signaling to verify whether our analogs act well via this lipid receptor. Especially, for this assay with compounds 3a, 2a and oleic acid (control) were tested.

mice = assay: Two-bottle preference test; type: in vivo, mouse; conditions: for gustatory preference versus control solution (xanthan gum) / concentration preferred (optimal preference) in two-bottle preference test: 12 hours; for gustatory preference versus control solution (xanthan gum): 10 to 100 μM; for concentration preferred (optimal preference) in two-bottle preference test: versus xanthan gum control
Experimental: Eight weeks old, male mice (C57BI/6 black) were purchased from the “Janvier Elevage” (Le Mans) and used for these experiments.
The mice are placed individually in cages in a controlled environment (humidity and constant temperature) and have free access to a standard diet. 6 hours before the tests, the mice are deprived of water.
During the behavioral experiments, the mice were offered two bottles simultaneously for 12 hours (night period).
The mice are subjected to a choice between the “control” solution and the experimental solution (FIG. 4 and FIG. 5). • control solutions contain 0.3% xanthan gum, w/v, (Sigma Life Science, USA) in water to reproduce lipid texture and minimize bias due to differences in appearance between the two bottles; • the experimental solution contains, either the “test compound” according to the invention at a concentration varying from 10 to 100 μM (compound 3a, FIG. 4 or compound 2a, FIG. 5) or only xanthan gum at […] (control test). To avoid the preference for one side, the position of each bottle is changed during each test.
To estimate the consumption of control and experimental solutions, the bottles are weighed before and after each experiment. The mice are allowed to take rest for 48 hours between each experiment.

C-reactive protein (CRP) = assay: CRP concentration in sera of obese mice; type: in vivo, mouse; conditions: obese mice on HFD, versus HFD only
Experimental: as §1
The CRP concentration was determined in sera by an automatic analyzer (Gilford Model 2000 system, a Beckman System T.R).

T2 sequence (Q08857 whole entry): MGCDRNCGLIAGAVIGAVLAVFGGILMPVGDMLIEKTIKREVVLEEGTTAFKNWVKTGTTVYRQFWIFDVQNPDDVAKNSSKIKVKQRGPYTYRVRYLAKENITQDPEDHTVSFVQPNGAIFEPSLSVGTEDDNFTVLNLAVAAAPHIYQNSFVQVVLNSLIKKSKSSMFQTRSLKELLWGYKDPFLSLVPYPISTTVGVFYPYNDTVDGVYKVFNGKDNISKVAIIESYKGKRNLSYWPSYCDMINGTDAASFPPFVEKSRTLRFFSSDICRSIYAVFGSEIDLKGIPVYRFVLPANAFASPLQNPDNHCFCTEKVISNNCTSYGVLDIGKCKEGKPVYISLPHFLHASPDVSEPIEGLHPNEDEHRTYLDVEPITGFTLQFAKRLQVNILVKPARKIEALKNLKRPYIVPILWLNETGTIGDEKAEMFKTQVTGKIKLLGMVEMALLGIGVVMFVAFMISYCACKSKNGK

| SMILES | body weight in obese mice (obese C57BL/6J mice) | anti-obesity effect, comparison of the two analogues (obese C57BL/6J mice; HFD, 75 μM in feeder bottles) | effect of the GPR120 inhibitor AH7614 on the increase in [Ca2+]i induced by the compound (GPR120) | fat taste receptor(s) through which the compound acts (mouse taste bud cells) | increase in intracellular free calcium concentration [Ca2+]i (F340/F380) (mouse taste bud cells) | action of the CD36 inhibitor SSO on the increase in [Ca2+]i induced by the compound (CD36) | CD36 agonist character (CD36) | gustatory preference versus control solution (xanthan gum) (mice) | concentration preferred (optimal preference) in two-bottle preference test (mice) [µM] | concentration of circulating CRP (C-reactive protein (CRP)) | action of the CD36 inhibitor SSO on the increase in [Ca2+]i induced by the compound (CD36; listed as OA) | concentration preferred in two-bottle preference test (mice) [mM] |
| --- | --- | --- | --- | --- | --- | --- | --- | --- | --- | --- | --- | --- |
| CCCCCCCC/C=C\CCCCCCCC(=O)OCC1(C)COC1 [Compound 2a, (Z)-(3-methyloxetan-3-yl)methyl octadec-9-enoate] | significant decrease in body weight | more powerful than 3a | significantly curtailed, but not suppressed | bounds to CD36; also recorded: acts on both receptors CD36 and GPR120 | rapid and significant rise in calcium signaling; also recorded: huge increase | partially blocked; also recorded: curtailed, but not completely suppressed | partial agonist | spontaneous preference | 75 | significantly decreased | – | – |
| CCCCCCCC/C=C\CCCCCCCCP(=O)(OCC)OCC [Compound 3a, diethyl (Z)-octadec-9-en-1-yl phosphonate] | significant decrease in body weight | – | – | acts both to CD36 and GPR120 | rapid and significant rise in calcium signaling; also recorded: huge increase | completely blocked; also recorded: completely suppressed | complete CD36 agonist | spontaneous preference | 75 | significantly decreased | – | – |
| CCCCCCCC/C=C\CCCCCCCC(=O)O [oleic acid] | – | – | – | – | rapid and significant rise in calcium signaling | – | – | – | – | – | completely blocked; also recorded: partially blocked | 7.7 |
